The subject of experiment [1] is dopamine D3 receptor mRNA. Conditions: daily doses clozapine 30 mg/kg, sulpiride 100 mg/kg; male Wistar rats; long term; cited from earlier work.
The test system of experiment [2] is intraocular pressure (IOP) in rabbits. To be noted: 50 μl.
Description: New Zealand albino rabbits of either sex were used in the study. A 20% hypertonic saline solution was infused at the speed of 1 ml per min for 10 minutes through the marginal ear vein with an infusion pump.
Then the IOP of both eyes were measured with a Tono-Pen XL Tonometer (Mentor, Norwell, Mass.) at 30 minute and 10 minute intervals before the experiment. At the time of commencement, as well as at 10, 20, 40, 60, and 80 rain intervals measurements were taken, Then measurements were repeated at every 30 minute intervals.

Each structure is given as a SMILES string. Where two headings read alike, the source gives them in different places.

The values below come from patent publication US5744468A (Lin; Tong-Ho, priority 1996, dated 1998).

As to `CCN1CCCC1CNC(=O)c1cc(S(N)(=O)=O)ccc1OC` (stereo not drawn) [Sulpiride], the “mRNA levels in the dopamine D3 receptor” value in experiment [1] is reported as “large increase”. The “effect on IOP recovery” value in experiment [2] (0.5% drop solution, instilled in eye) is on record as “didn't show a significant ability in decreasing lOP”; in experiment [2] (20% drop solution, listed as sulpiride), “able to decrease the intraocular pressure (IOP)”.
